Patent US11553716B2, “Agricultural and horticultural fungicide composition” (Nippon Soda Co., Ltd., priority 2018, dated 2023)
Where two headings read alike, the source gives them in different places.

System: cucumber gray mold disease fungi (Botrytis cinerea)
Assay: Cucumber gray mold control test
Format: in vivo
Settings: for pest or weed control at 0.025 ppm: Compound A 0.025 ppm alone (Compound B 0 ppm); for pest or weed control at 0.0063 ppm: Compound A 0.0063 ppm alone (Compound B 0 ppm)
Experimental: The compound A and the compound B were dissolved in an organic solvent and a surfactant to obtain an emulsion. The emulsion was diluted to a prescribed concentration with water. The dilute emulsion was sprayed to cotyledons of cucumber (variety: Shimoshirazu). They were naturally dried at room temperature. Thereafter, a conidiospore suspension of cucumber gray mold disease fungi (Botrytis cinerea) was dropwise inoculated. It was placed in a dark room at 20° C. and high humidity for 4 days. Appearance of disease spots on the leaves and that on untreated leaves were compared and studied, and a control ratio was calculated. The test was carried out in duplicate.
Based on the Colby's equation, a theoretical control ratio in the dilute emulsion prepared by using the compound A and the compound B together was calculated from a measured control ratio in the dilute emulsion prepared by using the compound A alone and that in the dilute emulsion prepared by using the compound B alone. Colby's equation: E=M+N−MN/100
M: measured control ratio (%) in dilute emulsion prepared by using compound A alone
N: measured control ratio (%) in dilute emulsion prepared by using compound B alone
E: theoretical control ratio (%) in dilute emulsion prepared by using compound A and compound B together
A control ratio of 0% means that disease spots of the same level as those of the non-treatment plot were observed, and a control ratio of 100% means that no disease spot was observed.
The test was carried out in the same manner as in Example 1.

[1] = Botrytis cinerea, 96 h, Table 4, Compound B 1.6 ppm alone (Compound A 0 ppm), read-out: Cucumber gray mold control ratio
[2] = Botrytis cinerea, 96 h, Table 4, Compound B 100 ppm alone (Compound A 0 ppm), read-out: Cucumber gray mold control ratio
[3] = Botrytis cinerea, 96 h, Table 4, Compound B 0.4 ppm alone (Compound A 0 ppm), read-out: Cucumber gray mold control ratio
[4] = Botrytis cinerea, 96 h, read-out: Cucumber gray mold control ratio, Table 4
[5] = Botrytis cinerea, 96 h, read-out: Cucumber gray mold control ratio, Table 5

COC(=O)N(OC)c1ccccc1COc1ccn(-c2ccc(Cl)cc2)n1 [Pyraclostrobin, pyraclostrobin]
pest or weed control at 1.6 µg/mL [1]: 23%
pest or weed control at 6.3 µg/mL (Botrytis cinerea, 96 h, Table 4, Compound B 6.3 ppm alone (Compound A 0 ppm), read-out: Cucumber gray mold control ratio): 46%

N#Cc1sc2c(=O)c3ccccc3c(=O)c=2sc1C#N [Dithianon, dithianon]
pest or weed control at 25 µg/mL (Botrytis cinerea, 96 h, Table 4, Compound B 25 ppm alone (Compound A 0 ppm), read-out: Cucumber gray mold control ratio): 13%
pest or weed control at 100 µg/mL [2]: 10%

Cc1ccc2nc3sc(=O)sc3nc2c1 [Chinomethionat, chinomethionat]
pest or weed control at 100 µg/mL (Botrytis cinerea, 96 h, read-out: Cucumber gray mold control ratio, Table 5, Compound B 100 ppm alone (Compound A 0 ppm)): 20%
pest or weed control at 400 µg/mL (Botrytis cinerea, 96 h, read-out: Cucumber gray mold control ratio, Table 5, Compound B 400 ppm alone (Compound A 0 ppm)): 14%

CN(C)[C@@H]1C(O)=C(C(N)=O)C(=O)[C@@]2(O)C(O)=C3C(=O)c4c(O)cccc4[C@@](C)(O)[C@H]3[C@H](O)[C@@H]12 [Oxytetracycline, oxytetracycline]
pest or weed control at 100 µg/mL (Botrytis cinerea, 96 h, Table 5, Compound B 100 ppm alone (Compound A 0 ppm), read-out: Cucumber gray mold control ratio): 18%
pest or weed control at 400 µg/mL (Botrytis cinerea, 96 h, Table 5, Compound B 400 ppm alone (Compound A 0 ppm), read-out: Cucumber gray mold control ratio): 21%

CC#Cc1cc(C)nc(Nc2ccccc2)n1 [Mepanipyrim, mepanipyrim]
pest or weed control at 0.4 µg/mL [3]: 19%
pest or weed control at 1.6 µg/mL [1]: 29%

CC1(C)CCC(Cc2ccc(Cl)cc2)C1(O)Cn1cncn1 (stereo not drawn) [Metconazole, metconazole]
pest or weed control at 0.4 µg/mL [3]: 22%
pest or weed control at 1.6 µg/mL [1]: 29%

C=CCNC(=O)c1c([Si](C)(C)C)sc(C)c1C [Compound B, silthiofam]
pest or weed control at 400 ppm (Botrytis cinerea, 96 h, read-out: Cucumber gray mold control ratio, Table 1, Compound B 400 ppm alone (Compound A 0 ppm)): 0%
pest or weed control at 6.3 ppm (Botrytis cinerea, 96 h, read-out: Cucumber gray mold control ratio, Table 2, Compound B 6.3 ppm alone (Compound A 0 ppm)): 0%
pest or weed control at 25 ppm (Botrytis cinerea, 96 h, read-out: Cucumber gray mold control ratio, Table 2, Compound B 25 ppm alone (Compound A 0 ppm)): 0%
pest or weed control at 100 ppm (Botrytis cinerea, 96 h, read-out: Cucumber gray mold control ratio, Table 2, Compound B 100 ppm alone (Compound A 0 ppm)): 5%
pest or weed control at 0.1 ppm (Botrytis cinerea, 96 h, read-out: Cucumber gray mold control ratio, Table 3, Compound B 0.1 ppm alone (Compound A 0 ppm)): 0%
pest or weed control at 0.4 ppm (Botrytis cinerea, 96 h, read-out: Cucumber gray mold control ratio, Table 3, Compound B 0.4 ppm alone (Compound A 0 ppm)): 0%
pest or weed control at 1.6 ppm (Botrytis cinerea, 96 h, read-out: Cucumber gray mold control ratio, Table 3, Compound B 1.6 ppm alone (Compound A 0 ppm)): 0%

Cc1cc(C)nc(Nc2ccccc2)n1 [Pyrimethanil, pyrimethanil]
pest or weed control at 0.4 µg/mL [3]: 6%
pest or weed control at 1.6 µg/mL [1]: 16%

CCCC1COC(Cn2cncn2)(c2ccc(Cl)cc2Cl)O1 (stereo not drawn) [Propiconazole, propiconazole]
pest or weed control at 1.6 µg/mL (Botrytis cinerea, 96 h, Table 5, Compound B 1.6 ppm alone (Compound A 0 ppm), read-out: Cucumber gray mold control ratio): 26%
pest or weed control at 6.3 µg/mL (Botrytis cinerea, 96 h, Table 5, Compound B 6.3 ppm alone (Compound A 0 ppm), read-out: Cucumber gray mold control ratio): 42%

[H]/N=C(/N)N[C@H]1[C@H](O)[C@@H](O)[C@H](O[C@@H]2O[C@@H](C)[C@](O)(C=O)[C@H]2O[C@@H]2O[C@@H](CO)[C@H](O)[C@@H](O)[C@@H]2NC)[C@@H](N/C(N)=N\[H])[C@@H]1O [Streptomycin, streptomycin]
pest or weed control at 100 µg/mL [2]: 12%
pest or weed control at 400 µg/mL (Botrytis cinerea, 96 h, Table 4, Compound B 400 ppm alone (Compound A 0 ppm), read-out: Cucumber gray mold control ratio): 13%

Cc1nc2c(F)c(F)ccc2cc1Oc1cccc(F)c1C(C)(C)O [Compound A, 2-{2-[(7,8-difluoro-2-methylquinolin-3-yl)oxy]-6-fluorophenyl}propan-2-ol]
pest or weed control at 0.025 ppm (Botrytis cinerea, 96 h, read-out: Cucumber gray mold control ratio, Table 1): 24%
pest or weed control at 0.1 ppm (Botrytis cinerea, 96 h, read-out: Cucumber gray mold control ratio, Table 1, Compound A 0.1 ppm alone (Compound B 0 ppm)): 89%
pest or weed control at 0.025 ppm (Botrytis cinerea, 96 h, read-out: Cucumber gray mold control ratio, Table 2): 17%
pest or weed control at 0.1 ppm (Botrytis cinerea, 96 h, read-out: Cucumber gray mold control ratio, Table 2, Compound A 0.1 ppm alone (Compound B 0 ppm)): 48%
pest or weed control at 0.025 ppm (Botrytis cinerea, 96 h, read-out: Cucumber gray mold control ratio, Table 3): 5%
pest or weed control at 0.1 ppm (Botrytis cinerea, 96 h, read-out: Cucumber gray mold control ratio, Table 3, Compound A 0.1 ppm alone (Compound B 0 ppm)): 53%
pest or weed control at 0.0063 ppm [4]: 10%
pest or weed control at 0.025 ppm [4]: 7%
pest or weed control at 0.1 ppm (Botrytis cinerea, 96 h, read-out: Cucumber gray mold control ratio, Table 4, Compound A 0.1 ppm alone (Compound B 0 ppm)): 26%
pest or weed control at 0.0063 ppm [5]: 3%
pest or weed control at 0.025 ppm [5]: 17%
pest or weed control at 0.1 ppm (Botrytis cinerea, 96 h, read-out: Cucumber gray mold control ratio, Table 5, Compound A 0.1 ppm alone (Compound B 0 ppm)): 64%

propineb
Cucumber gray mold control ratio (Table 5, Compound B 100 ppm alone (Compound A 0 ppm)): 27%
Cucumber gray mold control ratio (Table 5, Compound B 400 ppm alone (Compound A 0 ppm)): 33%
